Assay results reported in US20250268894A1, “MACROCYCLE COMPOUNDS FOR THE TREATMENT OF CANCER” (Hoffmann-La Roche Inc., priority 2022, published 2025).

Columns and labels:
[1] = tested on: phosphorylation of ERK, KRAS G12D in AGS cells; test: pERK inhibition assay, KRAS G12D in AGS cells; assay type: cell-based, human; conditions: Homo sapiens, 4 hours
How it was run: (§1)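 NCI-H358 (G12C), AGS (G12D) and SW620 (G12V) cells in RPMI-1640/10% FBS, plated overnight, then treated 4 h with compound (0.5% DMSO final). Fixed, methanol-permeabilized; phospho-ERK detected by in-cell ELISA (anti-pERK, HRP secondary, TMB, OD450). IC50 from 4-parameter sigmoidal fit.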

[2] = tested on: phosphorylation of ERK, KRAS G12V in SW620 cells; test: pERK inhibition assay, KRAS G12V in SW620; assay type: cell-based, human; conditions: Homo sapiens, SW-620, SW620, 4 hours
How it was run: as §1

[3] = tested on: Miapaca-2 KRAS G12C + A59T cells; test: Stable KRAS mutant cell line viability assay (CellTiter-Glo), G12C + A59T; assay type: cell-based; conditions: Homo sapiens, MIA PaCa-2, 72 h, Miapaca-2 mutant cells, 3 d
From the text: (§2) The aim of the study was to determine the potency and efficacy of compounds for cell proliferation using CellTiter-Glo® (CTG) Luminescent Cell Viability Assay (Promega Corp., Madison, WI). We cloned […] KRAS^G12C variant sequences with secondary mutations (V8A, V9Y, S17E, T58I, A59T, S65W, R68S, D69P, M72I, D92R, H95N, Y96D, Q99F, Q99W, Y96H, and F156L) into the Miapaca-2. Totally 14 stable Miapaca-2 mutant cell lines were established through lentivirus infection. For the cell viability assay, cells were dosed with compounds in a 9-point dose-response using a 4 fold dilution series at a top dose of 10 μM. KRAS mutant cells were maintained in DMEM+10% FBS+2.5% HI Horse serum+1% PS+1 μg/mL Puromycin and seeded into 96-well plates at 800-1,500 cells per well 24 h before compound addition and then incubated with compound for 3 d before assaying viability (CellTiter-Glo, Promega). Assays were performed in biological duplicates. Nonlinear regression curves were fitted using Xfit. IC50 (absolute IC50) is the dose at which the estimated viability is 50% relative to untreated wells.

[4] = tested on: Miapaca-2 KRAS G12C + R68S cells; test: Stable KRAS mutant cell line viability assay (CellTiter-Glo), G12C + R68S; assay type: cell-based; conditions: Homo sapiens, MIA PaCa-2, 72 h, Miapaca-2 mutant cells, 3 d
From the text: as §2

[5] = tested on: Miapaca-2 KRAS G12C + H95N cells; test: Stable KRAS mutant cell line viability assay (CellTiter-Glo), G12C + H95N; assay type: cell-based; conditions: Homo sapiens, MIA PaCa-2, 72 h, Miapaca-2 mutant cells, 3 d
From the text: as §2

CO[C@@H](C)c1ncc(N2CCN(CC(F)(F)F)CC2)cc1-c1c2c3cc(ccc3n1CC(F)(F)F)-c1csc(n1)C[C@H](NC(=O)[C@H](C(C)C)N(C)C(=O)N1CCOCC1)C(=O)N1CCC[C@H](N1)C(=O)OCC(C)(C)C2 (atropisomer, axis not shown; (M)) [Example 6]
IC50 [1]: 3 nM | IC50 [2]: 2 nM | IC50 [3]: 11 nM | IC50 [4]: 34 nM | IC50 [5]: 5 nM
